This is an account of results in patent US20090093469A1, “Phenylaminopropanol Derivatives and Methods of Their Use” (WYETH, priority 2004, published 2009).

Structures can show the parent of a compound that is named as a salt.

One experiment deals with T1, hNET (Homo sapiens, UniProt P23975).
T1 construct: expressed in transfected cells
T1 sequence (P23975 whole entry): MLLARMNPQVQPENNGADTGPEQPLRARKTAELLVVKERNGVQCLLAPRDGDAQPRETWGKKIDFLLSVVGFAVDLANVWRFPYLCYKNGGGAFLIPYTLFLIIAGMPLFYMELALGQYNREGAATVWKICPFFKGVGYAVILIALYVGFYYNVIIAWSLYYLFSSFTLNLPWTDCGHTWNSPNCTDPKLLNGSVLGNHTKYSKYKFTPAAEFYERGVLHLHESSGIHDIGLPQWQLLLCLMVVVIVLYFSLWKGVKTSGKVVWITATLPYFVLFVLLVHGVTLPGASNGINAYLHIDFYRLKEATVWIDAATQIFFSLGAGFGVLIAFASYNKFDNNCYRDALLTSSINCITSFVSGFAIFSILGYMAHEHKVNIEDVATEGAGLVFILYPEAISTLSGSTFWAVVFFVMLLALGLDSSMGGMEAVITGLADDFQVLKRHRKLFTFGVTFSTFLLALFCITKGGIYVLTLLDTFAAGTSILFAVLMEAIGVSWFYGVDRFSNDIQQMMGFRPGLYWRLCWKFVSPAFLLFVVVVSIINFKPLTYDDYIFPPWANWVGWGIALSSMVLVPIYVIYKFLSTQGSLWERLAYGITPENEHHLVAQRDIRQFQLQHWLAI
Put plainly: Norepinephrine (NE) uptake assay in MDCK-Net6 cells stably transfected with human hNET. The experiment is classed as cell-based. The following applies: MDCK-Net6, read-out: % Inhibition @ 1 μM (hNET).
As usually defined, the inhibition is how much of the control response was suppressed. `CNC[C@@H](O)[C@H](c1cccc(F)c1)n1ccc2c(Br)cccc21` [Example 125, (1S,2R)-1-(4-bromo-1H-indol-1-yl)-1-(3-fluorophenyl)-3-(methylamino)propan-2-ol hydrochloride]: the inhibition at 1 µM was found to be 94.3%.
On to `CNC[C@@H](O)[C@H](c1cccc(F)c1)n1ccc2cc(Br)ccc21` [Example 127, (1S,2R)-1-(5-bromo-1H-indol-1-yl)-1-(3-fluorophenyl)-3-(methylamino)propan-2-ol hydrochloride], for which the inhibition at 1 µM was 95.7%.
On the same count and under the same terms, then `CNC[C@@H](O)[C@H](c1cccc(F)c1)n1ccc2ccc(Br)cc21` [Example 132, (1S,2R)-1-(6-bromo-1H-indol-1-yl)-1-(3-fluorophenyl)-3-(methylamino)propan-2-ol hydrochloride], with 93%; and `CNC[C@@H](O)[C@H](c1cccc(F)c1)n1ccc2ccc(F)cc21` [Example 133, (1S,2R)-1-(6-fluoro-1H-indol-1-yl)-1-(3-fluorophenyl)-3-(methylamino)propan-2-ol hydrochloride], with 96.4%; and `CNC[C@@H](O)[C@H](c1cccc(F)c1)n1ccc2cccc(Br)c21` [Example 135, (1S,2R)-1-(7-bromo-1H-indol-1-yl)-1-(3-fluorophenyl)-3-(methylamino)propan-2-ol hydrochloride], with 99.5%.
Still for that read-out and setting: to `CNC[C@@H](O)[C@H](c1cccc(C(F)(F)F)c1)n1ccc2ccccc21` [Example 136, (1S,2R)-1-(1H-indol-1-yl)-3-(methylamino)-1-[3-(trifluoromethyl)phenyl]propan-2-ol hydrochloride] belongs 97%; to `CNC[C@H](O)[C@H](c1cccc(F)c1)n1ccc2ccccc21` [Example 139, (1S,2S)-1-(3-fluorophenyl)-1-(1H-indol-1-yl)-3-(methylamino)propan-2-ol hydrochloride], 94.9%; to `CNC[C@@H](O)[C@H](c1cccc(F)c1)n1cc(C)c2ccccc21` [Example 143, (1S,2R)-1-(3-fluorophenyl)-3-(methylamino)-1-(3-methyl-1H-indol-1-yl)propan-2-ol hydrochloride], 96.8%.
On to `CNC[C@@H](O)[C@H](c1cccc(F)c1)n1ccc2cccc(Cl)c21` [Example 149, (1S,2R)-1-(7-chloro-1H-indol-1-yl)-1-(3-fluorophenyl)-3-(methylamino)propan-2-ol hydrochloride], for which the inhibition at 1 µM stood at 100%.
In the case of `CNC[C@@H](O)[C@H](c1cccc(F)c1)n1ccc2c(Cl)cccc21` [Example 150, (1S,2R)-1-(4-chloro-1H-indol-1-yl)-1-(3-fluorophenyl)-3-(methylamino)propan-2-ol hydrochloride], the inhibition at 1 µM was 98.3%.
For `CNC[C@@H](O)[C@H](c1cccc(F)c1)n1ccc2ccc(Cl)cc21` [Example 151, (1S,2R)-1-(6-chloro-1H-indol-1-yl)-1-(3-fluorophenyl)-3-(methylamino)propan-2-ol hydrochloride], the inhibition at 1 µM was found to be 94.3%.
Turning to `CNC[C@@H](O)[C@H](c1ccccc1)n1ccc2cc(Cl)ccc21` [Example 152, (1S,2R)-1-(5-chloro-1H-indol-1-yl)-3-(methylamino)-1-phenylpropan-2-ol hydrochloride], the inhibition at 1 µM was 96.2%.
Consider `CNC[C@@H](O)[C@H](c1cccc(F)c1)n1ccc2cc(Cl)ccc21` [Example 153, (1S,2R)-1-(5-chloro-1H-indol-1-yl)-1-(3-fluorophenyl)-3-(methylamino)propan-2-ol hydrochloride], for which the inhibition at 1 µM was 97.4%.

Still in this experiment, the particulars now being: test compound 1 μM; [3H]NE uptake, MDCK-Net6 cells; read-out: % Inhibition @ 1 μM (hNET).
Turning to `Cc1cn([C@@H](c2ccccc2)[C@H](O)CN)c2ccc(Cl)cc12` [Example 120, (1S,2R)-3-amino-1-(5-chloro-3-methyl-1H-indol-1-yl)-1-phenylpropan-2-ol hydrochloride], the inhibition at 1 µM came out at 68.6%.
Consider `CNC[C@@H](OC)[C@H](c1ccccc1)n1cc(C)c2cc(Cl)ccc21` [Example 121, [(2R,3S)-3-(5-chloro-3-methyl-1H-indol-1-yl)-2-methoxy-3-phenylpropyl]methylamine], for which the inhibition at 1 µM is 21.2%.
Turning to `CNC[C@@H](O)[C@H](c1ccccc1)n1cc(C)c2cccc(Cl)c21` [Example 122, (1S,2R)-1-(7-chloro-3-methyl-1H-indol-1-yl)-3-(methylamino)-1-phenylpropan-2-ol hydrochloride], the inhibition at 1 µM was determined as 97.4%.
For `CNC[C@@H](OC)[C@H](c1ccccc1)n1cc(C)c2cc(F)ccc21` [Example 123, [(2R,3S)-3-(5-fluoro-3-methyl-1H-indol-1-yl)-2-methoxy-3-phenylpropyl]methylamine hydrochloride], the inhibition at 1 µM is 65%.
As to `CNC[C@@H](O)[C@H](c1ccccc1)n1ccc2c(Br)cccc21` [Example 124, (1S,2R)-1-(4-bromo-1H-indol-1-yl)-3-(methylamino)-1-phenylpropan-2-ol hydrochloride], the inhibition at 1 µM came to 91.5%.
The same measure, in the same setting: then `CNC[C@@H](O)[C@H](c1ccccc1)n1ccc2cc(Br)ccc21` [Example 126, (1S,2R)-1-(5-bromo-1H-indol-1-yl)-3-(methylamino)-1-phenylpropan-2-ol hydrochloride], with 92.9%; and `CNC[C@@H](O)[C@H](c1ccccc1)n1ccc2c(C#N)cccc21` [Example 128, 1-[(1S,2R)-2-hydroxy-3-(methylamino)-1-phenylpropyl]-1H-indole-4-carbonitrile hydrochloride], with 45.6%.
The same measure, in the same setting: then `CNC[C@@H](O)[C@H](c1ccccc1)n1ccc2ccc(Br)cc21` [Example 129, (1S,2R)-1-(6-bromo-1H-indol-1-yl)-3-(methylamino)-1-phenylpropan-2-ol hydrochloride], with 71.8%; and `CNC[C@@H](O)[C@H](c1ccccc1)n1ccc2cc(C#N)ccc21` [Example 130, 1-[(1S,2R)-2-hydroxy-3-(methylamino)-1-phenylpropyl]-1H-indole-5-carbonitrile hydrochloride], with 76%; and `CNC[C@@H](O)[C@H](c1cccc(F)c1)n1ccc2c(C#N)cccc21` [Example 131, 1-[(1S,2R)-1-(3-fluorophenyl)-2-hydroxy-3-(methylamino)propyl]-1H-indole-4-carbonitrile hydrochloride], with 63.1%.
Still for that read-out and setting: to `NC[C@@H](O)[C@H](c1cccc(F)c1)n1ccc2ccccc21` [Example 134, (1S,2R)-3-amino-1-(3-fluorophenyl)-1-(1H-indol-1-yl)propan-2-ol hydrochloride] belongs 68.5%; to `CNC[C@@H](O)[C@H](c1cccc(C(F)(F)F)c1)N1CCc2ccccc21` [Example 138, (1S,2R)-1-(2,3-dihydro-1H-indol-1-yl)-3-(methylamino)-1-[3-(trifluoromethyl)phenyl]propan-2-ol hydrochloride], 97.9%.
For `CNC[C@@H](O)[C@H](c1ccc(F)c(F)c1)n1ccc2ccccc21` [Example 140, (1S,2R)-1-(3,4-difluorophenyl)-1-(1H-indol-1-yl)-3-(methylamino)propan-2-ol hydrochloride], the inhibition at 1 µM amounted to 96.7%.
On the same count and under the same terms, to `CNC[C@@H](O)[C@H](c1ccccc1)n1ccc2c(Cl)cccc21` [Example 146, (1S,2R)-1-(4-chloro-1H-indol-1-yl)-3-(methylamino)-1-phenylpropan-2-ol hydrochloride] belongs 97.1%; to `CNC[C@@H](O)[C@H](c1ccccc1)n1ccc2ccc(Cl)cc21` [Example 147, (1S,2R)-1-(6-chloro-1H-indol-1-yl)-3-(methylamino)-1-phenylpropan-2-ol hydrochloride], 91.7%; to `CNC[C@@H](O)[C@H](c1ccccc1)n1ccc2cccc(Cl)c21` [Example 148, (1S,2R)-1-(7-chloro-1H-indol-1-yl)-3-(methylamino)-1-phenylpropan-2-ol hydrochloride], 97.8%.
Consider `CNC[C@@H](O)[C@H](c1ccccc1)n1cc(C(C)C)c2ccccc21` [Example 154, (1S,2R)-1-(3-isopropyl-1H-indol-1-yl)-3-(methylamino)-1-phenylpropan-2-ol hydrochloride], for which the inhibition at 1 µM was determined as 96.1%.
On the same count and under the same terms, then `CNC[C@@H](O)[C@H](c1cccc(F)c1)n1cc(C(C)C)c2ccccc21` [Example 155, (1S,2R)-1-(3-fluorophenyl)-1-(3-isopropyl-1H-indol-1-yl)-3-(methylamino)propan-2-ol hydrochloride], with 98.9%; and `CNC[C@@H](O)[C@H](c1cc(F)cc(F)c1)n1ccc2ccccc21` [Example 157, (1S,2R)-1-(3,5-difluorophenyl)-1-(1H-indol-1-yl)-3-(methylamino)propan-2-ol hydrochloride], with 99.6%; and `CNC[C@@H](O)[C@H](c1cc(F)cc(F)c1)N1CCc2ccccc21` [Example 158, (1S,2R)-1-(3,5-difluorophenyl)-1-(2,3-dihydro-1H-indol-1-yl)-3-(methylamino)propan-2-ol hydrochloride], with 99.6%.
For the molecule `NCC[C@@H](O)[C@H](c1cccc(F)c1)n1ccc2ccccc21` [Example 159, (1S,2R)-4-amino-1-(3-fluorophenyl)-1-(1H-indol-1-yl)butan-2-ol hydrochloride], the inhibition at 1 µM turned out to be 93.8%.
As for `CNC[C@@H](O)[C@H](c1cccc(F)c1)n1cc(-c2ccc(OC)cc2)c2ccccc21` [Example 169, (1S,2R)-1-(3-fluorophenyl)-1-[3-(4-methoxyphenyl)-1H-indol-1-yl]-3-(methylamino)propan-2-ol hydrochloride], the inhibition at 1 µM was 72%.
On to `CNC[C@@H](O)[C@H](c1cccc(F)c1)n1cc(-c2ccc(C)cc2)c2ccccc21` [Example 170, (1S,2R)-1-(3-fluorophenyl)-3-(methylamino)-1-[3-(4-methylphenyl)-1H-indol-1-yl]propan-2-ol hydrochloride], for which the inhibition at 1 µM came to 96.4%.
